Earlier results, collected in PMC11331742 (Military Medical Research, 2024).

Columns and labels:
[1] = system: preclinical models
Description: (§1) In addition, studies involving MC2r-independent agonists such as PT-141 could provide insight into cortisol-independent anti-inflammatory mechanisms.

[2] = system: MC2r; design: method as in PMID 25140322
[3] = system: mouse model of acute lung injury
Description: as §1

| Molecule | anti-inflammatory effects [1] | affinity for MC2r [2] | effect on inflammation [3] |
| --- | --- | --- | --- |
| CCCC(=O)C1(c2ccccc2)CCN(C(=O)[C@@H](Cc2ccc(OC)cc2)NC(=O)[C@@H](N)Cc2cncn2C)CC1 [BMS-470539] | promising anti-inflammatory effects | – | – |
| α-melanocyte-stimulating hormone [α-MSH] | – | minimal affinity | reduced inflammation |
